In patent US20150011508A1, “COMPOUNDS AND COMPOSITIONS AS C-KIT KINASE INHIBITORS” (priority 2011, published 2015):

Target: T1, c-kit (Homo sapiens, UniProt P10721)
T1 construct: human Mo7e cells which endogenously express c-kit; endogenous in cells; host or cells: human Mo7e cells (SCF-dependent promegakaryocytic leukemia line)
Experiment: Mo7e cell proliferation assay (SCF dependent proliferation)
Assay type: cell-based
Details: Table 1; human Mo7e cells stimulated with human recombinant SCF, 48 h, CellTiter Glo; 1% FBS (footnote)
Summary of the method: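 SCF-dependent proliferation of human Mo7e cells, which express c-kit endogenously, was measured after 48 h at 37° C by CellTiter Glo luminescence. IC50 was taken as the concentration giving a response halfway between the baseline and maximum responses.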

T1 sequence (P10721 26-976): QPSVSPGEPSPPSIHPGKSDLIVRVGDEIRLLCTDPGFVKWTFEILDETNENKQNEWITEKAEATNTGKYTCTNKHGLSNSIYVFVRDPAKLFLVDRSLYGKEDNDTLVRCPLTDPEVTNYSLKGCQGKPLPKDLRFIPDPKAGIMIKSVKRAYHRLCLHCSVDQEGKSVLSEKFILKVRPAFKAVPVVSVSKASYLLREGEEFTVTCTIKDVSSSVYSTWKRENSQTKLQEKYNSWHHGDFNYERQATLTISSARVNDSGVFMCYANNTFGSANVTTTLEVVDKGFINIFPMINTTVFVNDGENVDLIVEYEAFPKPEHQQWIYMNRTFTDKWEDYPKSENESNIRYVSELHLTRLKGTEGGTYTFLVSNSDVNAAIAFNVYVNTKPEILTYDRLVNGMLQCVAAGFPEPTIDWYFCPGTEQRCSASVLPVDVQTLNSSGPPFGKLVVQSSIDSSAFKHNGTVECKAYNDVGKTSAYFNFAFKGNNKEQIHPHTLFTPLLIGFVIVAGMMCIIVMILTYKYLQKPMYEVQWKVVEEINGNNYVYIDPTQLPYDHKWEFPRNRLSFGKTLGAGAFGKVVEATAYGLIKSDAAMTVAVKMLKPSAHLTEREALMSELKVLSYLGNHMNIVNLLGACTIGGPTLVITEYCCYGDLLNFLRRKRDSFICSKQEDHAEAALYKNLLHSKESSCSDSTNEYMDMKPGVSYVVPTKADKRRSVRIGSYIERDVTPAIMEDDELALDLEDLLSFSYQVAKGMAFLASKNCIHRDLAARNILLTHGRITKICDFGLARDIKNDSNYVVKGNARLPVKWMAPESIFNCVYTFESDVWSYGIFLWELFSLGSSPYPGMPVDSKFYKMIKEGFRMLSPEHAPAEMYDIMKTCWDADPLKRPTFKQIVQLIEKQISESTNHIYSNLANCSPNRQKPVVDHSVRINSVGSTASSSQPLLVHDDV

| Molecule | IC50 [nM] |
| --- | --- |
| Cc1nc(-c2ccc(C)c(NC(=O)c3cnc4ccc(-c5sc(C(N)=O)nc5C)cn34)c2)no1 [F264, 4-methyl-5-(3-((2-methyl-5-(5-methyl-1,2,4-oxadiazol-3-yl)phenyl)carbamoyl)imidazo[1,2-a]pyridin-6-yl)thiazole-2-carboxamide] | 38 |
| Cc1ccc(-c2noc(C(C)OCC(F)(F)F)n2)cc1NC(=O)c1cnc2ccccn12 (centres unmarked) [F266] | 11 |
| (S)-1,1,1-trifluoro-2-methyl-4-(3-(4-methyl-3-(7-methylimidazo[1,2-a]pyridine-3-carboxamido)phenyl)-1,2,4-oxadiazol-5-yl)butan-2-yl dihydrouen phosphate [F268] | 26 |

Next, values leading:

| IC50 [nM] | Molecule |
| --- | --- |
| 8 | Cc1nc(-c2ccc(C)c(NC(=O)c3cnc4ccc(-c5sc(CO)nc5C)cn34)c2)no1 [F265, 6-(2-(hydroxymethyl)-4-methylthiazol-5-yl)-N-(2-methyl-5-(5-methyl-1,2,4-oxadiazol-3-yl)phenyl)imidazo[1,2-a]pyridine-3-carboxamide] |
| 8 | Cc1ccn2c(C(=O)Nc3cc(-c4noc(CCC(C)(OC(=O)[C@H](C)N)C(F)(F)F)n4)ccc3C)cnc2c1 (stereo partly drawn) [F271, (2S)-1,1,1-trifluoro-2-methyl-4-(3-(4-methyl-3-(7-methylimidazo[1,2-a]pyridine-3-carboxamido)phenyl)-1,2,4-oxadiazol-5-yl)butan-2-yl 2-aminopropanoate] |
